According to ChEMBL document CHEMBL6121036, “Evaluation of Cereblon-Directing Warheads for the Development of Orally Bioavailable PROTACs” (J Med Chem, 2025):
pIC50: −log10 of the molar value. In brackets after ≈: the same amount, converted by molar mass. Activity calls are given as the source filed them. No cut-off for these calls is given here.

Legend:
MV4-11 = test: Cytotoxicity against human MV4-11 cells assessed as reduction in cell viability incubated for 72 hrs by cell-titer glo assay; assay type: functional, cell-based; conditions: MV4-11, 72 h
[1] = biological target: T1, Protein cereblon/Bromodomain-containing protein 4 (Homo sapiens, UniProt O60885+Q96SW2); test: PROTAC activity at CRBN/Hibit-tagged BRD4 (unknown origin) expressed in HEK293 cells co-expressing LgBiT assessed as degradation of BRD4 incubated for 24 hrs by […] glo-max assay relative to control; assay type: cell-based
[2] = biological target: Protein cereblon/Bromodomain-containing protein 4/DNA damage-binding protein 1 (Homo sapiens) (UniProt O60885+Q96SW2+Q16531); test: Binding affinity to his-tagged CRBN/DDB1/GST-tagged BRD4 (49 to 170 residues)(unknown origin) assessed as ternary complex formation (AUC) incubated for 1 hr by luminescence based Alphascreen assay; assay type: protein assay
[3] = Metabolic stability in mouse liver microsomes assessed as half life; assay type: ADME, Microsome; conditions: liver microsomes
[4] = biological target: T1, Protein cereblon/Bromodomain-containing protein 4; test: PROTAC activity at CRBN/Hibit-tagged BRD4 (unknown origin) expressed in HEK293 cells co-expressing LgBiT assessed as degradation of BRD4 incubated for 24 hrs by […] glo-max assay; assay type: cell-based
[5] = Kinetic aqueous solubility of the compound at pH 7.4; assay type: physicochemical; conditions: read-out: Kinetic_solubility
HD-MB03 = test: Cytotoxicity against human HD-MB03 cells assessed as reduction in cell viability incubated for 72 hrs by cell-titer glo assay; assay type: functional, cell-based; conditions: HD-MB03, 72 h
HEK293 = test: Cytotoxicity against HEK293 cells expressing LgBiT fused HiBiT-BRD2 measured after 24 hrs by cell titer-glo assay; assay type: toxicity, cell-based; conditions: human, hek293, 24 h
[6] = biological target: T1, Protein cereblon/Bromodomain-containing protein 4; test: PROTAC activity at CRBN/Hibit-tagged BRD4 (unknown origin) expressed in HEK293 cells co-expressing LgBiT assessed as degradation rate incubated for 24 hrs by […] glo-max assay; assay type: cell-based
[7] = Effect on MYC level in human MV4-11 cells assessed as fold change at 100 nM measured after 4 hrs; assay type: functional
[8] = Effect on FGL2 level in human MV4-11 cells assessed as fold change at 100 nM measured after 4 hrs; assay type: functional
[9] = biological target: Protein cereblon/Bromodomain-containing protein 3 (Homo sapiens) (UniProt Q15059+Q96SW2); test: PROTAC activity at CRBN/Hibit-tagged CRISPR BRD3 (unknown origin) expressed in HEK293 cells co-expressing LgBiT assessed as degradation of BRD3 by […] glo-max assay; assay type: cell-based
[10] = Effect on BRD4 level in human MV4-11 cells assessed as fold change at 100 nM measured after 4 hrs; assay type: functional
[11] = biological target: T1, Protein cereblon/Bromodomain-containing protein 4; test: PROTAC activity at CRBN/Hibit-tagged CRISPR BRD4 (unknown origin) expressed in HEK293 cells co-expressing LgBiT assessed as degradation of BRD4 by […] glo-max assay; assay type: cell-based
[12] = Effect on CDC42EP3 level in human MV4-11 cells assessed as fold change at 100 nM measured after 4 hrs; assay type: functional
[13] = Effect on CCND3 level in human MV4-11 cells assessed as fold change at 100 nM measured after 4 hrs; assay type: functional
[14] = Effect on TP53 level in human MV4-11 cells assessed as fold change at 100 nM measured after 4 hrs; assay type: functional
[15] = Stability in mouse plasma assessed as half life by UPLC-MS/MS analysis; assay type: ADME, cell-free
[16] = biological target: Protein cereblon/Bromodomain-containing protein 2 (Homo sapiens) (UniProt P25440+Q96SW2); test: PROTAC activity at CRBN/Hibit-tagged CRISPR BRD2 (unknown origin) expressed in HEK293 cells coexpressing LgBiT assessed as degradation of BRD2 by […] glo-max assay; assay type: cell-based
[17] = Effect on BRD3 level in human MV4-11 cells assessed as fold change at 100 nM measured after 4 hrs; assay type: functional
[18] = Effect on CCNF level in human MV4-11 cells assessed as fold change at 100 nM measured after 4 hrs; assay type: functional
[19] = Effect on ZFP36L2 level in human MV4-11 cells assessed as fold change at 100 nM measured after 4 hrs; assay type: functional
[20] = Effect on MCL1 level in human MV4-11 cells assessed as fold change at 100 nM measured after 4 hrs; assay type: functional
[21] = Effect on PLK1 level in human MV4-11 cells assessed as fold change at 100 nM measured after 4 hrs; assay type: functional
[22] = Effect on ZBTB21 level in human MV4-11 cells assessed as fold change at 100 nM measured after 4 hrs; assay type: functional
[23] = Effect on NSA2 level in human MV4-11 cells assessed as fold change at 100 nM measured after 4 hrs; assay type: functional
[24] = Effect on BRD2 level in human MV4-11 cells assessed as fold change at 100 nM measured after 4 hrs; assay type: functional
[25] = Effect on AURKA level in human MV4-11 cells assessed as fold change at 100 nM measured after 4 hrs; assay type: functional
[26] = Effect on NOP53 level in human MV4-11 cells assessed as fold change at 100 nM measured after 4 hrs; assay type: functional
[27] = Effect on RNF166 level in human MV4-11 cells assessed as fold change at 100 nM measured after 4 hrs; assay type: functional
[28] = Effect on PLAU level in human MV4-11 cells assessed as fold change at 100 nM measured after 4 hrs; assay type: functional
[29] = Effect on FYTTD1 level in human MV4-11 cells assessed as fold change at 100 nM measured after 4 hrs; assay type: functional
[30] = Permeability in MDCK-II cells incubated for 1 hr by UPLC/MS/UV analysis; assay type: ADME, cell-based, Canis lupus familiaris; conditions: dog, read-out: permeability

## Cc1sc2c(c1C)C(c1ccc(Cl)cc1)=N[C@@H](CC(=O)N1CCN(c3ccc(C4CCC(=O)NC4=O)cc3)CC1)c1nnc(C)n1-2 (some centres undefined)
MV4-11
  pIC50: 7.73
[1]
  Emax: 10.6%
[2]
  Activity: Active; Lower Ternary Complex Auc Formation Observed
[3]
  half-life: 12 min
[4]
  DC50: > 10000 nM
[5]
  solubility kinetic: 17 µM (≈ 11.2 µg/mL)
HD-MB03
  pIC50: 6.60
HEK293
  Activity: Non-toxic
[6]
  Activity: 0.005 fRLU/hr

## Cc1sc2c(c1C)C(c1ccc(Cl)cc1)=N[C@@H](CC(=O)N1CCC(CN3CCN(c4cc5c(cc4F)C(=O)N(C4CCC(=O)NC4=O)C5=O)CC3)CC1)c1nnc(C)n1-2 (some centres undefined)
[7]
  fold change (FC): -2.29
[8]
  fold change (FC): -1.1
[9]
  Activity: Active; Less Potent Than Protac 8
MV4-11
  pIC50: 8.49
[10]
  fold change (FC): -3.89
[11]
  Activity: Active; Less Potent Than Protac 8
[12]
  fold change (FC): -1.41
[13]
  fold change (FC): -0.96
[14]
  fold change (FC): 1.82
[1]
  Emax: 88.6%
[15]
  half-life: 822 min
[2]
  Activity: Active
[3]
  half-life: 16.8 min
[16]
  Activity: Active; Less Potent Than Protac 8
[17]
  fold change (FC): -3.93
[4]
  DC50: 6.28 nM
[18]
  fold change (FC): -1.86
[5]
  solubility kinetic: 73.4 µM (≈ 61.7 µg/mL)
[19]
  fold change (FC): -1.09
HD-MB03
  pIC50: 7.08
[20]
  fold change (FC): -1.22
[21]
  fold change (FC): -0.75
[22]
  fold change (FC): -0.02
[23]
  fold change (FC): -1.04
[24]
  fold change (FC): -3.06
[25]
  fold change (FC): -0.84
[26]
  fold change (FC): -0.81
[27]
  fold change (FC): -1.01
[28]
  fold change (FC): -1.14
[29]
  fold change (FC): -1.52
[30]
  Papp at 1 h: 10.5 ×10⁻⁶ cm/s
[6]
  Activity: 0.143 fRLU/hr

## Cc1sc2c(c1C)C(c1ccc(Cl)cc1)=N[C@@H](CC(=O)N1CCN(CC3CCN(c4ccc(C5CCC(=O)NC5=O)cc4)CC3)CC1)c1nnc(C)n1-2 (some centres undefined)
MV4-11
  pIC50: 9.66
[1]
  Emax: 96.9%
[2]
  Activity: Active
[3]
  half-life: 130 min
[4]
  DC50: 0.43 nM
[5]
  solubility kinetic: 64.5 µM (≈ 48.6 µg/mL)
HD-MB03
  pIC50: 8.71
HEK293
  Activity: Non-toxic
[6]
  Activity: 0.245 fRLU/hr

## Cc1sc2c(c1C)C(c1ccc(Cl)cc1)=N[C@@H](CC(=O)NCCCOc1ccc(C3CCC(=O)NC3=O)cc1)c1nnc(C)n1-2 (some centres undefined)
MV4-11
  pIC50: 9.64
[1]
  Emax: 97.3%
[2]
  Activity: Active
[3]
  half-life: 9.6 min
[4]
  DC50: 0.75 nM
[5]
  solubility kinetic: 52.8 µM (≈ 34.1 µg/mL)
HD-MB03
  pIC50: 8.49
HEK293
  Activity: Non-toxic
[6]
  Activity: 0.264 fRLU/hr

## Cc1sc2c(c1C)C(c1ccc(Cl)cc1)=N[C@@H](CC(=O)N1CCC(CN3CCN(c4ccc(NC5CCC(=O)NC5=O)c(F)c4)CC3)CC1)c1nnc(C)n1-2 (some centres undefined)
[7]
  fold change (FC): -2.23
[8]
  fold change (FC): -0.95
[9]
  Activity: Active; Less Potent Than Protac 8
MV4-11
  pIC50: 9.02
[10]
  fold change (FC): -3.41
[11]
  Activity: Active; Less Potent Than Protac 8
[12]
  fold change (FC): -1.17
[13]
  fold change (FC): -0.82
[14]
  fold change (FC): 1.71
[1]
  Emax: 79.1%
[15]
  half-life: 1180 min
[2]
  Activity: Active
[3]
  half-life: 112 min
[16]
  Activity: Active; Less Potent Than Protac 8
[17]
  fold change (FC): -3.87
[4]
  DC50: 2.31 nM
[18]
  fold change (FC): -1.62
[5]
  solubility kinetic: 71.1 µM (≈ 55.9 µg/mL)
[19]
  fold change (FC): -0.97
HD-MB03
  pIC50: 7.84
[20]
  fold change (FC): -1.06
[21]
  fold change (FC): -0.65
[22]
  fold change (FC): -0.09
[23]
  fold change (FC): -1.03
[24]
  fold change (FC): -3.07
[25]
  fold change (FC): -0.77
[26]
  fold change (FC): -0.82
[27]
  fold change (FC): -0.33
[28]
  fold change (FC): -1.06
[29]
  fold change (FC): -1.46
[6]
  Activity: 0.093 fRLU/hr

## Cc1sc2c(c1C)C(c1ccc(Cl)cc1)=N[C@@H](CC(=O)N1CCN(c3cccc(C4CCC(=O)NC4=O)c3)CC1)c1nnc(C)n1-2 (some centres undefined)
MV4-11
  pIC50: 8.20
[1]
  Emax: 12.3%
[2]
  Activity: Active; Lower Ternary Complex Auc Formation Observed
[3]
  half-life: 17.4 min
[4]
  DC50: > 10000 nM
[5]
  solubility kinetic: 21.5 µM (≈ 14.1 µg/mL)
HD-MB03
  pIC50: 7.04
HEK293
  Activity: Non-toxic
[6]
  Activity: 0.005 fRLU/hr

## Cc1sc2c(c1C)C(c1ccc(Cl)cc1)=N[C@@H](CC(=O)OC(C)(C)C)c1nnc(C)n1-2
[3]
  half-life: 13.8 min

## Cc1sc2c(c1C)C(c1ccc(Cl)cc1)=N[C@@H](CC(=O)N1CC(COc3ccc(C4CCC(=O)NC4=O)cc3)C1)c1nnc(C)n1-2 (some centres undefined)
MV4-11
  pIC50: 8.51
[1]
  Emax: 40.4%
[2]
  Activity: Active
[3]
  half-life: 16.8 min
[4]
  DC50: 13.9 nM
[5]
  solubility kinetic: 21.3 µM (≈ 14 µg/mL)
HD-MB03
  pIC50: 7.42
HEK293
  Activity: Non-toxic
[6]
  Activity: 0.07 fRLU/hr
